Source: patent US20160060642A1, “G Protein Coupled Receptor Libraries” (COMMONWEALTH SCIENTIFIC AND INDUSTRIAL RESEARCH ORGANISATION, priority 2013, published 2016)

What was measured:
Type in all cases: cell-based
ODR-10 [1] = molecular target: T1, ODR-10 (Caenorhabditis elegans, UniProt Q18807); experiment: GFP reporter assay in Cyb-KAGMM yeast expressing ODR-10
T1 construct: expressed in transfected cells; host or cells: Saccharomyces cerevisiae Cyb-KAGMM (ste2- sst2- far1- gpa1-, gpa1/odr-3 chimaera integrated)
T1 sequence (Q18807 1-339): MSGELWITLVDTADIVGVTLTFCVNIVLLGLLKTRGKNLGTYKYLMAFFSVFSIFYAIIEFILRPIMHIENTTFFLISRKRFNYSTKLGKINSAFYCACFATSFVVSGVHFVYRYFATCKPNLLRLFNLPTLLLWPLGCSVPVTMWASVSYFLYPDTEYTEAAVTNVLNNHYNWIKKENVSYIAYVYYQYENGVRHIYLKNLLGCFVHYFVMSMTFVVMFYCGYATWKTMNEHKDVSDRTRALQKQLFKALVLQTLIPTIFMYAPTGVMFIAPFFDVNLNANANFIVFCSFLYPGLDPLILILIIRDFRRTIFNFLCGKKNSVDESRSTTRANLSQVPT

ODR-10 [2] = molecular target: T1, ODR-10; experiment: LacZ reporter assay (ONPG workup) in Cyb-KAGMM yeast expressing ODR-10; conditions: ONPG substrate
ODR-10 [3] = molecular target: T1, ODR-10; experiment: Multiwell (48/96 well) LacZ/ONPG assay of yeast screening strain transformed with odr-10; conditions: for Abs414 reading after 3 hours: 500 μM diacetyl
Experimental: The method was as follows ([…] from Brouchon-[…] et al., 2003): • 1 mL of Saccharomyces cerevisiae Minimal Medium (SCMM)-His, -Leu was inoculated with a single colony of the screening strain transformed with odr-10 (lacZ/[…]^31 gpa1^-) at Abs600 nm=1, in a 96-well deep well plate. • The plate was incubated overnight (18 hours) at 30° C. with shaking at 900 rpm. • The culture from the well was diluted into fresh wells (96 or 48 well plate) to a final volume of 1 mL at the following yeast cell optical densities: • 1. Abs600=1 • 2. Abs600=0.5 • 3. Abs600=0.5 • Wells 1 and 2 above were induced with 500 μM of a diacetyl solution (made up fresh and kept on ice); 1M: 87 μL diacetyl+913 μL water; then diluted 1/10 in water and 5 μL added to 1 mL cells for a final concentration of 500 μM). All wells were incubated for 30° C. for 18 hours with shaking at 900 rpm. • The plate was centrifuged to pellet the cells, the supernatant was aspirated off and discarded and the pellet was resuspended in 120 μL of lysis buffer (100 mM sodium phosphate buffer, pH 7.5 (consisting of 82 mM Na2HPO4 and […] with 0.1% (w/v) sodium dodecyl sulfate). Initial absorbance was read at 414 nm in a plate-reading spectrophotometer. • The plate was shaken at 900 rpm for 10 min at 30° C. • Thirty microlitres of 2.5 mM o-nitrophenyl-β-D-galactopyranoside (ONPG) (10 mg ONPG dissolved in 130 μL dimethyl formamide is 250 mM, then dilute 1/100 in water for final concentration, which is 2.5 mM) was added and the plate was incubated at room temperature for between 5 minutes and 3 hours. • Eighty microlitres of a 1M Na2CO3 solution was added and the absorbance was read in a plate-based spectrophotometer, either at 414 nm or a spectrum was recorded for each well over the visible region. The assay was repeated with a range of different dilutions (1⁄4 to 1/20) of the starting yeast culture in the wells of either 96 or 48 deep-well plates (the former can contain a total of 2 mL and the latter 5 mL.) Normally dilutions required to reach Abs600 nm=1 are in the range of 1⁄2 to 1⁄4. This experiment probed a set of higher dilutions. Incubation was for 17 hours at 30° C. and 900 rpm shaking. […] In 96 well plates, the higher cell dilutions consistently gave the better diacetyl-induced to control ratios (FIG. 11). The best ratio was in the case of the 96-well plate and the 1/20 dilution where the diacetyl-induced absorbance was 0.481 and the uninduced control was 0.079.

ODR-10 [4] = molecular target: T1, ODR-10; experiment: 96-well LacZ/ONPG screen, positive control odr-10; conditions: 500 μM diacetyl
[5] = molecular target: odr-10 non-functional mutant H110Y (Caenorhabditis elegans, UniProt Q18807, H110Y); conditions: 500 μM diacetyl; wells H11 and H12

## CC(=O)C(C)=O [diacetyl, butane-2,3-dione]
ODR-10 [1]; 50 μM diacetyl, pGK:Odr10 with Fig2:GFP (FIG. 5 panel C)
  GFP fluorescence emission relative to uninduced: below the uninduced condition
ODR-10 [1]; 500 μM diacetyl, best case (FIG. 5a, pGK:Odr10 with Fus1:GFP), 7 hrs induction
  difference between the peak GFP responses with ODR-10 expression and for the vector control: less than a twofold difference
ODR-10 [2]; 700 μM diacetyl, LacZ driven by FUS-2 (so in the source), FIG. 8
  maximum increase in signal over background: approximately 6 fold
ODR-10 [2]; 1 mM diacetyl, LacZ under FUS-1 promoter, FIG. 9
  maximum ligand-induced increase in signal: approximately 2.5 fold
ODR-10 [3]; Abs600 nm=0.5 starting condition
  Abs414 reading after 3 hours: 0.521
ODR-10 [3]; Abs600 nm=1 starting condition
  Abs414 reading after 3 hours: 0.247
ODR-10 [3]; 96-well plate, 1/20 dilution of starting culture, 17 hours incubation
  diacetyl-induced absorbance (Abs414 nm): 0.481
ODR-10 [3]; dilutions 1/4 to 1/20 of starting culture in 96 or 48 deep-well plates
  induction of lacZ: detected in all the conditions except the 1/20 cell dilution in the 48 well plate
ODR-10 [4]; clone in well H9
  response (yellow colour, spectral peak at 420 nm): responds
ODR-10 [4]; clone in well H10
  response (colour or spectra): did not show any response
[5]
  response (spectra): did not show any response
